The subject of data set [1] is dopamine-β-hydroxylase. Particulars: in words, prior art; cited from earlier work.
The subject of data set [2] is dopamine-β-hydroxylase. Nature of the data set: Noradrenaline, dopamine, serotonine and 5-hydroxy-indolylacetic acid contents of cerebrum (dopamine-β-hydroxylase inhibiting effect). The following applies: Rattus norvegicus, ip. The format is in vivo, male Wister rats. Here is the method: (§1) The dopamine-β-hydroxylase inhibiting effects of the compounds according to the invention were examined by the following tests:
(§2) The tests were performed on male Wister rats weighing 150 to 200 g. The dopamine-β-hydroxylase inhibiting effects of the compounds were evaluated by determining the change of noradrenaline, dopamine and adrenaline levels of the cerebrum, heart, spleen and adrenal gland. The serotonine and 5-hydroxy-indolyl-acetic acid levels of the cerebrum were also determined. The measurements were performed as follows:
(§3) The animals were decapitated, the cerebrum, heart, spleen and adrenal gland were removed quickly, and the organs were frozen by placing them onto a metal sheet cooled with dry ice. The frozen organs were stored for a maximum of one night at -20° C.
(§4) Noradrenaline was determined according to the method of Shellenberger et al (Anal. Biochem., Vol. 39, p. 356, 1971), with the following modifications of the basic procedure: 0.5 ml of 0.1 molar Na-K-phosphate buffer, containing 9 g/l of EDTA-Na2, were added to 0.5 ml of the eluate, and the catecholamines (noradrenaline in the examination of heart and spleen and noradrenaline and dopamine in the examination of the cerebrum) were oxidized with 0.1 ml of a 0.1 N iodine solution in 5% potassium iodide. […] Thereafter the samples were placed for 5 minutes in a drying oven heated to 100° C., and then the samples were cooled with ice water. The fluorescence of noradrenaline was measured with an OPTON spectrophotometer at wavelengths of 390 nm (excitation) and 490 nm (emission).
Determination of the noradrenaline, dopamine, serotonine and 5-hydroxy-indolylacetic acid contents of cerebrum
The brains were homogenized in 10 parts by volume of 0.4 N perchloric acid. The homogenized mixture was stored at -20° C. overnight; thereafter it was thawed and centrifuged as described above. A sample of homogenized mixture corresponding to 0.5 g of brain was removed, the pH of the sample was adjusted to 8.0±0.1 with 0.1 molar tris-buffer of the above composition, and the sample was processed as described above for the determination of the noradrenaline content of heart and spleen, with the difference that 1.5 ml of 0.05 N perchloric acid were applied as eluting agent. 0.5 ml of the eluate were applied to determine the noradrenaline and dopamine content. The measurement was performed as described above, with the difference that samples of 0.5 ml were applied for the recording of the fluorescence of noradrenaline. The residue was placed for 50 minutes into a drying oven heated to 100° C.; thereafter the sample was cooled with ice water, and the fluorescence of dopamine was recorded at wavelengths of 325 nm (excitation) and 380 nm (emission).
In a further test series the serotonine and 5-hydroxy-indolylacetic acid contents were also determined, in addition to the determination of the noradrenaline and dopamine contents, from the same sample. In this instance the brains were homogenized in 10 ml of 75% ethanol, 0.2 ml of EDTA-Na2 and 5% of ascorbic acid were added to the homogenized mixtures, and the homogenized mixtures were maintained at -20° C. overnight. The mixtures were then centrifuged as described above, and 5.0 ml samples of the supernatant were removed. The samples were diluted with equal volumes of distilled water, and poured onto ion-exchange columns of 0.5×1.5 cm dimensions, filled with buffered Amberlite CG-30 (200 to 400 mesh). The columns were washed with 5 ml of distilled water followed with 1.0 ml of 0.2 N hydrochloric acid, and the first effluent and the aqueous wash were collected for the determination of 5-hydroxy-indolylacetic acid. Elution was continued with further 1.2 ml of 0.2 N hydrochloric acid in order to remove noradrenaline, dopamine and serotonine. Samples of 0.3 ml were used for the determinations. […]

Data set [3] has as its system dopamine-β-hydroxylase. As to the kind of experiment: Noradrenaline content of heart (dopamine-β-hydroxylase inhibiting effect). Type of data set: in vivo, male Wister rats. Particulars: Rattus norvegicus, ip, read-out: Amine level, heart NA (noradrenaline). The procedure: as §1, §2, §3
(§5) Determination of the noradrenaline content of heart and spleen
(§6) The organs were weighed in frozen state and then homogenized in 5.0 ml of 0.4 N perchloric acid containing 0.05% of EDTA-Na2 and 0.1% of Na2 S2 O5. The homogenized mixtures were centrifuged as described above for the treatment of adrenal gland, the supernatants were decanted, and the pH was adjusted to 8.0±0.1 with a 0.1 molar tris buffer containing 20 g/l of NaOH and 25 g/l of EDTA-Na2. 100 mg of prepared Al2 O3 (Anton et al: J. Pharm. Ther., Vol. 138, p. 360, 1962) were added to the samples, and the mixtures were shaken mechanically for 20 minutes. Thereafter the Al2 O3 were washed with 2.10 ml of distilled water, and the noradrenaline was eluted with 1.0 ml of 0.05 N perchloric acid. 0.5 ml samples of the eluate were applied for the determination of noradrenaline.
as §4
(§7) In the tests disulfiram, 2,2-dipyridyl, bis(1-methyl-4-homopiperazinyl-thiocarbonyl)-disulfide, sodium diethyldithiocarbamate and N-phenyl-N'-(2-thiazolyl)-thiourea were used as reference substances. The values indicated in Table 1 are percentages in relation to the amine levels of the controls measured in the same tests (± Standard Error). The statistical calculations were performed on a TPA/i type computer, using Student's test.

The test system of data set [4] is dopamine-β-hydroxylase. As to the kind of experiment: Noradrenaline content of spleen (dopamine-β-hydroxylase inhibiting effect). The format is in vivo, male Wister rats. The following applies: Rattus norvegicus, ip, read-out: Amine level, spleen NA (noradrenaline). Here is the method:
as §1, §2, §3, §5, §6, §4, §7

In data set [5] the test system is dopamine-β-hydroxylase. As to the kind of experiment: Adrenaline content of adrenal gland (dopamine-β-hydroxylase inhibiting effect). Type of data set: in vivo, male Wister rats. The following applies: Rattus norvegicus, ip, read-out: Amine level, adrenal gland AD (adrenaline). The procedure:
as §1, §2, §3
Determination of the adrenaline content of adrenal gland
The adrenal glands were freed from fat and homogenized in 3.0 ml of ice-cold 0.4 N perchloric acid. The homogenized mixtures were centrifuged for 10 minutes at 0° C. with a speed of 3200 r.p.m. on a Janetzky K-70 type centrifuge. 0.05 ml samples were taken from the supernatant, and the adrenaline level was determined directly by the method of Laverty et al (Anal. Biochem., Vol. 22, p. 269, 1968).
as §7

A short description of data set [6]: in vivo. The following applies: mouse, ip.
[7] abbreviates: rats, i.p., 4 hours, ± Standard Error, read-out: Amine level, cerebrum DA (dopamine).
The mark [8] stands for this setting: rats, i.p., 4 hours, ± Standard Error, read-out: Amine level, cerebrum NA (noradrenaline).
Setting [9] is: rats, i.p., 4 hours, ± Standard Error, read-out: Amine level, cerebrum SE (serotonine).
[10] abbreviates: rats, i.p., 200 mg/kg, 4 hours, ± Standard Error, read-out: Amine level, cerebrum DA (dopamine).
[11] abbreviates: rats, i.p., 200 mg/kg, 4 hours, ± Standard Error, read-out: Amine level, cerebrum NA (noradrenaline).
The mark [12] stands for this setting: rats, i.p., 200 mg/kg, 4 hours, ± Standard Error, read-out: Amine level, cerebrum SE (serotonine).
Setting [13] is: rats, i.p., 4 hours, ± Standard Error.
Where [14] appears, read: rats, i.p., 200 mg/kg, 4 hours, ± Standard Error.
The mark [15] stands for this setting: 4 h, read-out: Amine level, cerebrum DA (dopamine).
Setting [16] is: 4 h, read-out: Amine level, cerebrum NA (noradrenaline).
Where [17] appears, read: 4 h, read-out: Amine level, cerebrum SE (serotonine).

Take `CCCCc1ccc(C(=O)O)nc1` [Fusaric acid, 5-butyl-picolinic acid]: the dopamine-β-hydroxylase inhibiting effects entry in data set [1] is recorded as “strong dopamine-β-hydroxylase inhibiting effects”.
`NNc1nncc2ccccc12` [Hydralazine, hydralazine]: the dopamine-β-hydroxylase inhibiting effects result in data set [1] was “possess dopamine-β-hydroxylase inhibiting effects”.
Regarding `Cn1cc[nH]c1=S` [methimazol], in data set [1], the dopamine-β-hydroxylase inhibiting effects entry is on record as “possess dopamine-β-hydroxylase inhibiting effects”.
In the case of `NNCc1ccccc1` [benzylhydrazine], in data set [1], the dopamine-β-hydroxylase inhibiting effects entry is on record as “exert dopamine-β-hydroxylase inhibiting effects” and the duration of activity entry was “exert their activities for a short period”.
Regarding `COCCNC1=C(C(=S)S)CCC1` [Compound M-1, 2-(N-methoxyethyl)-amino-cyclopent-1-ene-dithiocarboxylic acid], the response vs control in vivo at 100 mg/kg in data set [2] (setting [7]) worked out at 107 ± 4.7%; in data set [2] (setting [8]) it was 63.4 ± 3.6%; in data set [2] (setting [9]), 116 ± 4.7%; in data set [3] (setting [13]) it was 106 ± 10.3%; in data set [4] (setting [13]) it was 77.1 ± 8.9%; in data set [5] (setting [13]), 106 ± 6.1%. Moreover, the response vs control in vivo at 200 mg/kg in data set [2] (setting [10]) amounted to 122 ± 6.7%; in data set [2] (setting [11]), 64.2 ± 3.4%; in data set [2] (setting [12]) it was 107 ± 2.7%; in data set [2] (rats, i.p., 200 mg/kg, 4 hours, ± Standard Error, read-out: Level, cerebrum 5-HIAA (5-hydroxy-indolylacetic acid)), 141 ± 12.3%; in data set [3] (setting [14]), 110 ± 7.4%; in data set [4] (setting [14]), 110 ± 14.1%. For the same compound, the response vs control in vivo at 200 mg/kg in data set [5] (setting [14]) was 91.5 ± 4.7%. Moreover, the LD50 in data set [6] is approximately 400 mg/kg.
Consider `CCN(CC)C(=S)SSC(=S)N(CC)CC` [DS, bis(diethylthiocarbamoyl)-disulfide, reference compound], for which the response vs control in vivo at 200 mg/kg in data set [2] (setting [15]) is 111%; in data set [2] (setting [16]), 22.5%; in data set [2] (setting [17]) it was 122%; in data set [3] (4 h), 98%; in data set [5] (4 h) it was 52%. In addition, the response vs control in vivo at 400 mg/kg in data set [2] (setting [15]) stood at 112%; in data set [2] (setting [16]), 24.1%; in data set [2] (setting [17]) it was 117%; in data set [3] (4 h), 102%; in data set [5] (4 h), 66%. Moreover, in data set [1], the dopamine-β-hydroxylase inhibiting effects entry is given as “strong dopamine-β-hydroxylase inhibiting effects”.
Consider `O=C(CO)c1coc(=O)c2c(O)cccc12` [Oosponol], for which the dopamine-β-hydroxylase inhibiting effects result in data set [1] was “strong dopamine-β-hydroxylase inhibiting effects”.
For `CCN(CC)C(=S)S` [DDC-Na, sodium diethyldithiocarbamate, reference compound], the response vs control in vivo at 400 mg/kg in data set [2] (setting [15]) was found to be 120%; in data set [2] (setting [16]), 64.1%.
In the case of `CCN(CC)C(=S)S` [diethyl dithiocarbamate], the dopamine-β-hydroxylase inhibiting effects result in data set [1] is “strong dopamine-β-hydroxylase inhibiting effects”.
For the compound `S=C(Nc1ccccc1)Nc1nccs1` [Compound U-14624, N-phenyl-N'-(2-thiazolyl)-thiourea, reference compound], the response vs control in vivo at 200 mg/kg in data set [2] (setting [15]) came out at 121%; in data set [2] (setting [16]) it was 31.6%; in data set [2] (setting [17]), 137%; in data set [2] (4 h, read-out: Level, cerebrum 5-HIAA (5-hydroxy-indolylacetic acid)) it was 175%; in data set [3] (4 h) it was 106%; in data set [4] (4 h), 111%. Further, the response vs control in vivo at 200 mg/kg in data set [5] (4 h) came out at 72%.
For `CC(C)CCNC1=C(C(=S)S)CCC1` [Compound M-3, 2-(N-isoamyl)-amino-cyclopent-1-ene-dithiocarboxylic acid], the response vs control in vivo at 100 mg/kg in data set [2] (setting [7]) turned out to be 103 ± 4.1%; in data set [2] (setting [8]) it was 75.2 ± 1.7%; in data set [2] (setting [9]) it was 108 ± 5.7%; in data set [3] (setting [13]) it was 86.9 ± 5.9%; in data set [4] (setting [13]), 48.2 ± 9.5%; in data set [5] (setting [13]) it was 86.2 ± 4.5%. The response vs control in vivo at 200 mg/kg was determined as 114 ± 2.7% in data set [2] (setting [10]); 68.8 ± 2.4% in data set [2] (setting [11]); 98.2 ± 3.9% in data set [2] (setting [12]); 131 ± 4.4% in data set [3] (setting [14]); 135 ± 17% in data set [4] (setting [14]); 73.5 ± 2.2% in data set [5] (setting [14]).
`NOCc1ccccc1` [Benzyloxyamine]: in data set [1], the dopamine-β-hydroxylase inhibiting effects result is “exert dopamine-β-hydroxylase inhibiting effects” and the duration of activity entry is “exert their activities for a short period”.
`CC(N)Cc1ccccc1` (centres unmarked) [amphetamine]: the dopamine-β-hydroxylase inhibiting effects entry in data set [1] is reported as “possess dopamine-β-hydroxylase inhibiting effects”.

As a reminder, the LD50 is the dose expected to kill half of the subjects tested.

(Values after patent US4199598A, “Method of treating noradrenaline dysfunction or for dopamine-β-hydroxylase inhibition” (Richter Gedeon Vegyeszeti Gyar Rt., priority 1976, dated 1980).)
